# Measured values taken from ChEMBL document CHEMBL3885881, “DrugMatrix”.
# Species: Rattus norvegicus
# Experiment: DrugMatrix - Regimen: Daily Repeat
# Type: toxicity, organism-based, Sprague-Dawley
# Design: regimen Daily Repeat, gender Male, age 6-8 weeks
# Conditions: in vivo, po, route oral GAVAGE, vehicle 100 % WATER; for ERYTHROCYTE COUNT / HEMATOCRIT / HEMOGLOBIN / LEUKOCYTE COUNT / MEAN CORPUSCULAR HEMOGLOBIN / MEAN CORPUSCULAR HEMOGLOBIN CONCENTRATION / MEAN CORPUSCULAR VOLUME: tissue Blood; for ALKALINE PHOSPHATASE / ASPARTATE AMINOTRANSFERASE / BLOOD UREA NITROGEN / CARBON DIOXIDE / CHLORIDE / CHOLESTEROL / CREATINE PHOSPHOKINASE / CREATININE / GLUCOSE / LACTATE DEHYDROGENASE / LIPASE / PHOSPHORUS / POTASSIUM / SODIUM / TOTAL BILIRUBIN / TOTAL PROTEIN / URIC ACID: tissue Plasma
# [1] = 0 mg/kg, 72 h, dose level Control, time 3 day
# [2] = 0 mg/kg, 120 h, dose level Control, time 5 day
# [3] = 58 mg/kg, 72 h, dose level Low, time 3 day
# [4] = 58 mg/kg, 120 h, dose level Low, time 5 day
smiles,measurement,setting,value
C#Cc1cccc(Nc2ncnc3cc(OCCOC)c(OCCOC)cc23)c1 [ERLOTINIB],ERYTHROCYTE COUNT,[1],6.09 x10E6/uL
same,HEMATOCRIT,[1],42.62%
same,HEMOGLOBIN,[1],13.07 G/DL
same,LEUKOCYTE COUNT,[1],13.95 x10E3/uL
same,MEAN CORPUSCULAR HEMOGLOBIN,[1],21.47 pg
same,MEAN CORPUSCULAR HEMOGLOBIN CONCENTRATION,[1],30.62 G/DL
same,MEAN CORPUSCULAR VOLUME,[1],70.05 fL
same,ALKALINE PHOSPHATASE,[1],369 u/L
same,ASPARTATE AMINOTRANSFERASE,[1],86.17 u/L
same,BLOOD UREA NITROGEN,[1],16.33 mg/dL
same,CARBON DIOXIDE,[1],37.33 mmol/L
same,CHLORIDE,[1],104.83 MEQ/L
same,CHOLESTEROL,[1],79.83 mg/dL
same,CREATINE PHOSPHOKINASE,[1],392.83 u/L
same,CREATININE,[1],0.68 mg/dL
same,GLUCOSE,[1],153.33 mg/dL
same,LACTATE DEHYDROGENASE,[1],426.17 u/L
same,LIPASE,[1],11.67 u/L
same,PHOSPHORUS,[1],11 mg/dL
same,POTASSIUM,[1],6.72 MEQ/L
same,SODIUM,[1],146.67 MEQ/L
same,TOTAL BILIRUBIN,[1],0.55 mg/dL
same,TOTAL PROTEIN,[1],6.32 G/DL
same,URIC ACID,[1],0.0167 mg/dL
same,ERYTHROCYTE COUNT,[2],6.93 x10E6/uL
same,HEMATOCRIT,[2],46.82%
same,HEMOGLOBIN,[2],14.23 G/DL
same,LEUKOCYTE COUNT,[2],13.43 x10E3/uL
same,MEAN CORPUSCULAR HEMOGLOBIN,[2],20.55 pg
same,MEAN CORPUSCULAR HEMOGLOBIN CONCENTRATION,[2],30.38 G/DL
same,MEAN CORPUSCULAR VOLUME,[2],67.62 fL
same,ALKALINE PHOSPHATASE,[2],417.83 u/L
same,ASPARTATE AMINOTRANSFERASE,[2],83 u/L
same,BLOOD UREA NITROGEN,[2],15.33 mg/dL
same,CARBON DIOXIDE,[2],38.83 mmol/L
same,CHLORIDE,[2],98.17 MEQ/L
same,CHOLESTEROL,[2],66.83 mg/dL
same,CREATINE PHOSPHOKINASE,[2],383.17 u/L
same,CREATININE,[2],0.72 mg/dL
same,GLUCOSE,[2],156.5 mg/dL
same,LACTATE DEHYDROGENASE,[2],519.67 u/L
same,LIPASE,[2],4.83 u/L
same,PHOSPHORUS,[2],11.07 mg/dL
same,POTASSIUM,[2],6.03 MEQ/L
same,SODIUM,[2],138 MEQ/L
same,TOTAL BILIRUBIN,[2],0.55 mg/dL
same,TOTAL PROTEIN,[2],6.3 G/DL
same,URIC ACID,[2],0.0833 mg/dL
same,ERYTHROCYTE COUNT,[3],7.23 x10E6/uL
same,HEMATOCRIT,[3],47.6%
same,HEMOGLOBIN,[3],14.6 G/DL
same,LEUKOCYTE COUNT,[3],17.02 x10E3/uL
same,MEAN CORPUSCULAR HEMOGLOBIN,[3],20.2 pg
same,MEAN CORPUSCULAR HEMOGLOBIN CONCENTRATION,[3],30.77 G/DL
same,MEAN CORPUSCULAR VOLUME,[3],265.73 fL
same,ALKALINE PHOSPHATASE,[3],184.67 u/L
same,ASPARTATE AMINOTRANSFERASE,[3],86.33 u/L
same,BLOOD UREA NITROGEN,[3],16 mg/dL
same,CARBON DIOXIDE,[3],39 mmol/L
same,CHLORIDE,[3],107.67 MEQ/L
same,CHOLESTEROL,[3],93.67 mg/dL
same,CREATINE PHOSPHOKINASE,[3],293 u/L
same,CREATININE,[3],0.73 mg/dL
same,GLUCOSE,[3],141.33 mg/dL
same,LACTATE DEHYDROGENASE,[3],441.67 u/L
same,LIPASE,[3],21.33 u/L
same,PHOSPHORUS,[3],10 mg/dL
same,POTASSIUM,[3],6.7 MEQ/L
same,SODIUM,[3],148.67 MEQ/L
same,TOTAL BILIRUBIN,[3],0.73 mg/dL
same,TOTAL PROTEIN,[3],5.13 G/DL
same,URIC ACID,[3],0 mg/dL
same,ERYTHROCYTE COUNT,[4],7.1 x10E6/uL
same,HEMATOCRIT,[4],46.07%
same,HEMOGLOBIN,[4],13.83 G/DL
same,LEUKOCYTE COUNT,[4],18.86 x10E3/uL
same,MEAN CORPUSCULAR HEMOGLOBIN,[4],19.47 pg
same,MEAN CORPUSCULAR HEMOGLOBIN CONCENTRATION,[4],29.97 G/DL
same,MEAN CORPUSCULAR VOLUME,[4],64.9 fL
same,ALKALINE PHOSPHATASE,[4],222 u/L
same,ASPARTATE AMINOTRANSFERASE,[4],105.33 u/L
same,BLOOD UREA NITROGEN,[4],14.67 mg/dL
same,CARBON DIOXIDE,[4],38.67 mmol/L
same,CHLORIDE,[4],100.33 MEQ/L
same,CHOLESTEROL,[4],81.33 mg/dL
same,CREATINE PHOSPHOKINASE,[4],332 u/L
same,CREATININE,[4],0.73 mg/dL
same,GLUCOSE,[4],135 mg/dL
same,LACTATE DEHYDROGENASE,[4],477.67 u/L
same,LIPASE,[4],16.67 u/L
same,PHOSPHORUS,[4],11.53 mg/dL
same,POTASSIUM,[4],6.07 MEQ/L
same,SODIUM,[4],141 MEQ/L
same,TOTAL BILIRUBIN,[4],0.5 mg/dL
same,TOTAL PROTEIN,[4],5.57 G/DL
same,URIC ACID,[4],0.1 mg/dL
